Source: ChEMBL document CHEMBL2034833, “Synthesis of chalcone-amidobenzothiazole conjugates as antimitotic and apoptotic inducing agents” (Bioorg Med Chem, 2012)

Experiment: Inhibition of tubulin polymerization at 3 uM after 1 hr by fluorescence assay

COC(=O)Nc1nc2cc(C(=O)c3cccs3)ccc2[nH]1
inhibition: 59.6%
